Measurements taken from ChEMBL document CHEMBL1909046, “DrugMatrix in vitro pharmacology data”.

Assays:
D(4) dopamine receptor = target: T1, D(4) dopamine receptor (Homo sapiens, UniProt P21917); assay: DRUGMATRIX: Dopamine D4.2 radioligand binding (ligand: [3H] Spiperone); assay type: cell membranes, CHO-K1, Membrane; conditions: cho-k1; Not Active = under 50% inhibition at 10 µM
T1 sequence (P21917 whole entry): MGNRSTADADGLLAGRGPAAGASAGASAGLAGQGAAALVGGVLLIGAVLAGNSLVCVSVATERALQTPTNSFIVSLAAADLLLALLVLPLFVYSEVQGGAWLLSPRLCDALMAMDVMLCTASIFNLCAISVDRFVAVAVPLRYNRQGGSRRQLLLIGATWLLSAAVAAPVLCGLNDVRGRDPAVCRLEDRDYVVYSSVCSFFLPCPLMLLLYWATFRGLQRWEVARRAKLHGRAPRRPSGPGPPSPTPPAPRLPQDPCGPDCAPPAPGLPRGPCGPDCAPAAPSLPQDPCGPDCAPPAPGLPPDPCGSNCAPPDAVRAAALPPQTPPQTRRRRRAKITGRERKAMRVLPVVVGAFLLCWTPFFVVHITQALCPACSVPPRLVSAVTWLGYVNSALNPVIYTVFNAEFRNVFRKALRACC

[1] = DRUGMATRIX: GABAA, Muscimol, Central radioligand binding (ligand: [3H] Muscimol); assay type: cell membranes, Rattus norvegicus, Wistar, Brain, Membrane; conditions: Not Active = under 50% inhibition at 10 µM
Cytochrome P450 2C19 = Cytochrome P450 2C19 (Homo sapiens, UniProt P33261); conditions: bti-tn-5b1-4; also: in other assays of this panel Not Active means under 50% inhibition at 10 µM
[2] = DRUGMATRIX: Sodium/nucleoside co-transporter radioligand binding (ligand: nitrobenzylthioinosine); assay type: cell membranes, Cavia porcellus, Dunkin-Hartley, Cerebral cortex, Membrane; conditions: Not Active = under 50% inhibition at 10 µM
[3] = target: T2, C-X-C chemokine receptor type 2 (Homo sapiens, UniProt P25025); assay type: cell membranes, Membrane; conditions: cho-k1; also: in other assays of this panel Not Active means under 50% inhibition at 10 µM
T2 sequence (P25025 whole entry): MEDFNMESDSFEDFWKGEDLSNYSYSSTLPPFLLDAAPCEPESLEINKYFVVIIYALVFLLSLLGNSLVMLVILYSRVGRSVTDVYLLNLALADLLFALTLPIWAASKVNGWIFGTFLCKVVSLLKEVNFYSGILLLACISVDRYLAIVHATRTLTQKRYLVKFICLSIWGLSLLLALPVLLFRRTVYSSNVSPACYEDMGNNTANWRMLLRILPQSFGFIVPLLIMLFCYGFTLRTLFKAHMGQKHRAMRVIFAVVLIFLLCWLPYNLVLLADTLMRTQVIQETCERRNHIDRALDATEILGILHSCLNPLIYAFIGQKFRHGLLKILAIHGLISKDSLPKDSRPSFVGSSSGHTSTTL

Estrogen receptor beta = Estrogen receptor beta (Homo sapiens, UniProt Q92731); conditions: sf9; also: in other assays of this panel Not Active means under 50% inhibition at 10 µM
[4] = target: Protein phosphatase 3 catalytic subunit alpha (Homo sapiens, UniProt Q08209); parameters: species or system Escherichia coli;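 also: inhibition of calcineurin (PP2B) enzyme activity, measured with DiFMUP as the substrate; in other assays of this panel Not Active means under 50% inhibition at 10 µM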
[5] = DRUGMATRIX: beta-Lactamase enzyme inhibition (substrate: Nitrocefin); parameters: species or system Bacillus cereus; conditions: Not Active = under 50% inhibition at 10 µM
[6] = target: T3, Angiotensin-converting enzyme (Oryctolagus cuniculus, UniProt P12822); assay type: tissue-based, Lung
T3 sequence (P12822 whole entry): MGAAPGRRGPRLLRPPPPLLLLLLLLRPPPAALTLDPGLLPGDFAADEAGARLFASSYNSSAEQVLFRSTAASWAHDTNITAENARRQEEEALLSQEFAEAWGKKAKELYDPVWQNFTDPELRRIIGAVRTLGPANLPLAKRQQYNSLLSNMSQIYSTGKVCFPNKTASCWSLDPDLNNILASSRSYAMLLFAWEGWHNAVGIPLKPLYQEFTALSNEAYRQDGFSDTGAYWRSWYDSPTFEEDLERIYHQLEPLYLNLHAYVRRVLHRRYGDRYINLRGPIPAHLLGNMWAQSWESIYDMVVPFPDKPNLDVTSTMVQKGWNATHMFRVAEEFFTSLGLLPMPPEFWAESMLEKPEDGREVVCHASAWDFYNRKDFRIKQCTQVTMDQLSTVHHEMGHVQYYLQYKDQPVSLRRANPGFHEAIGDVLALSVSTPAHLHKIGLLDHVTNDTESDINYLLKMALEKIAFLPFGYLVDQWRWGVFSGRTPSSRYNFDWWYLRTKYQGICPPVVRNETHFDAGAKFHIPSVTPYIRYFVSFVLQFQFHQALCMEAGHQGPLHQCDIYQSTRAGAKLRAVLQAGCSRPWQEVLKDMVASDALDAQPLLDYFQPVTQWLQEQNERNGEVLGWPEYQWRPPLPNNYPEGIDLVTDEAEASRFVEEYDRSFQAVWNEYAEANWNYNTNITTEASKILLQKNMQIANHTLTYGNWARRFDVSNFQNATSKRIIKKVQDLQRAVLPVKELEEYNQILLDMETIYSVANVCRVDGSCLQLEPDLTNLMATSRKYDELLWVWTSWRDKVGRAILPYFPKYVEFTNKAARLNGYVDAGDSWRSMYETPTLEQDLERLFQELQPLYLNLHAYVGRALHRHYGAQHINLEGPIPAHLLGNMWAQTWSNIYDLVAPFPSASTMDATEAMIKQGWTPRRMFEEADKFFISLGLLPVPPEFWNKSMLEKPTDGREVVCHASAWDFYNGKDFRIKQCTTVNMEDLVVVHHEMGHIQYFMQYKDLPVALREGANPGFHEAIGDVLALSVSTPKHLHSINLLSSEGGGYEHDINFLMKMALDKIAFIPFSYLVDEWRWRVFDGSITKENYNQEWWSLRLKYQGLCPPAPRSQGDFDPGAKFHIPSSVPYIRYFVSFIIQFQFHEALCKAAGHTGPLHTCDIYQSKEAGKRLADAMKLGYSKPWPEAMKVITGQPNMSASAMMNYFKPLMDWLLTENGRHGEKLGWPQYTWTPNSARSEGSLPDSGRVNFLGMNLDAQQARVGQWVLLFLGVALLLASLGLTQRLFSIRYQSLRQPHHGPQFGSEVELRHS

Chain of Cytochrome P450 2C19 (P33261 whole entry): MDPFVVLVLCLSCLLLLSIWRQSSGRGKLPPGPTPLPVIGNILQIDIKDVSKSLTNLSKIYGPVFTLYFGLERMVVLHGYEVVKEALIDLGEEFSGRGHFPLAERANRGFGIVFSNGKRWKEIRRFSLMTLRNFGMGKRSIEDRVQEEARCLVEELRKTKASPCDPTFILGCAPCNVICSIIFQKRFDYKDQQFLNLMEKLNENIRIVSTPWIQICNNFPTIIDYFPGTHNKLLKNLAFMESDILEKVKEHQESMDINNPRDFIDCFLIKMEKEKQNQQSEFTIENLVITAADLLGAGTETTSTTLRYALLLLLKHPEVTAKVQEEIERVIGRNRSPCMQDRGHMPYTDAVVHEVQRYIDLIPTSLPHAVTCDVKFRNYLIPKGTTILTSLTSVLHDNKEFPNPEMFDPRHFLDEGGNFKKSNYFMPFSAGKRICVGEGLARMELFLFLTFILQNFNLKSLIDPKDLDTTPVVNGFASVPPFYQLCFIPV
Chain of Estrogen receptor beta (Q92731 whole entry): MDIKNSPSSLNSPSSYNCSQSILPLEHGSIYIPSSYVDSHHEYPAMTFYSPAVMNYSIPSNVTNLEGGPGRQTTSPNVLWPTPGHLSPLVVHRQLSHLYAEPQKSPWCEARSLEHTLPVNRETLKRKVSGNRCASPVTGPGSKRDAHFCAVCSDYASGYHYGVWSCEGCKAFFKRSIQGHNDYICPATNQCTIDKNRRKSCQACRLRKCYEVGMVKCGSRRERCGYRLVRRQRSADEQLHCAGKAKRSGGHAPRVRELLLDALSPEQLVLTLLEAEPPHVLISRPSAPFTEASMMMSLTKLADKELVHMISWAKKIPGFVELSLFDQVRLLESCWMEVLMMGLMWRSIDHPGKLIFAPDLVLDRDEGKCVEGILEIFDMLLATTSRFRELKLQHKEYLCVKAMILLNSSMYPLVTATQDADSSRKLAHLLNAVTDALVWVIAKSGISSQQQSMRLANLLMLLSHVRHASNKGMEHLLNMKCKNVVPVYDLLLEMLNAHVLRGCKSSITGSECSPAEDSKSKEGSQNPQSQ

O=c1oc2ccccc2c(O)c1Cc1c(O)c2ccccc2oc1=O [DICUMAROL]
Not Active: IC50 (D(4) dopamine receptor) | IC50 [1] | Ki [1] | IC50 (Cytochrome P450 2C19) | Ki (Cytochrome P450 2C19) | IC50 [2] | Ki [2] | IC50 [3] | IC50 (Estrogen receptor beta) | IC50 [4] | IC50 [5] | Ki [5] | IC50 [6]

C[C@H]1O[C@@H](O[C@H]2[C@@H](O)C[C@H](O[C@H]3[C@@H](O)C[C@H](O[C@H]4CC[C@@]5(C)[C@H](CC[C@@H]6[C@@H]5C[C@@H](O)[C@]5(C)[C@@H](C7=CC(=O)OC7)CC[C@]65O)C4)O[C@@H]3C)O[C@@H]2C)C[C@H](O)[C@@H]1O [DIGOXIN]
Not Active: IC50 (D(4) dopamine receptor) | IC50 [1] | Ki [1] | IC50 (Cytochrome P450 2C19) | Ki (Cytochrome P450 2C19) | IC50 [2] | Ki [2] | IC50 [3] | IC50 (Estrogen receptor beta) | IC50 [4] | IC50 [5] | Ki [5] | IC50 [6]

COc1cc2nc(N3CCN(C(=O)C4COc5ccccc5O4)CC3)nc(N)c2cc1OC (stereo not given) [DOXAZOSIN]
Not Active: IC50 (D(4) dopamine receptor) | IC50 [1] | Ki [1] | IC50 (Cytochrome P450 2C19) | Ki (Cytochrome P450 2C19) | IC50 [2] | Ki [2] | IC50 [3] | IC50 (Estrogen receptor beta) | IC50 [4] | IC50 [5] | Ki [5] | IC50 [6]

O=C(CCCN1CC=C(n2c(=O)[nH]c3ccccc32)CC1)c1ccc(F)cc1 [DROPERIDOL]
Not Active: IC50 (D(4) dopamine receptor) | IC50 [1] | Ki [1] | IC50 (Cytochrome P450 2C19) | Ki (Cytochrome P450 2C19) | IC50 [2] | Ki [2] | IC50 [3] | IC50 (Estrogen receptor beta) | IC50 [4] | IC50 [5] | Ki [5] | IC50 [6]

CC(C)[C@H]1C(=O)N2CCC[C@H]2[C@]2(O)O[C@](NC(=O)[C@@H]3C=C4c5cccc6[nH]cc(c56)C[C@H]4N(C)C3)(C(C)C)C(=O)N12 [ERGOCORNINE]
Not Active: IC50 (D(4) dopamine receptor) | IC50 [1] | Ki [1] | IC50 (Cytochrome P450 2C19) | Ki (Cytochrome P450 2C19) | IC50 [2] | Ki [2] | IC50 [3] | IC50 (Estrogen receptor beta) | IC50 [4] | IC50 [5] | Ki [5] | IC50 [6]

OC(Cn1cncn1)(Cn1cncn1)c1ccc(F)cc1F [FLUCONAZOLE]
Not Active: IC50 (D(4) dopamine receptor) | IC50 [1] | Ki [1] | IC50 (Cytochrome P450 2C19) | Ki (Cytochrome P450 2C19) | IC50 [2] | Ki [2] | IC50 [3] | IC50 (Estrogen receptor beta) | IC50 [4] | IC50 [5] | Ki [5] | IC50 [6]

CC(C)C(=O)Nc1ccc([N+](=O)[O-])c(C(F)(F)F)c1 [FLUTAMIDE]
Not Active: IC50 (D(4) dopamine receptor) | IC50 [1] | Ki [1] | IC50 (Cytochrome P450 2C19) | Ki (Cytochrome P450 2C19) | IC50 [2] | Ki [2] | IC50 [3] | IC50 (Estrogen receptor beta) | IC50 [4] | IC50 [5] | Ki [5] | IC50 [6]

CC1(C)O[C@@H]2C[C@H]3[C@@H]4CCC5=CC(=O)CC[C@]5(C)[C@@]4(F)[C@@H](O)C[C@]3(C)[C@]2(C(=O)CCl)O1 [HALCINONIDE]
Not Active: IC50 (D(4) dopamine receptor) | IC50 [1] | Ki [1] | IC50 (Cytochrome P450 2C19) | Ki (Cytochrome P450 2C19) | IC50 [2] | Ki [2] | IC50 [3] | IC50 (Estrogen receptor beta) | IC50 [4] | IC50 [5] | Ki [5] | IC50 [6]

O=c1[nH]c(=O)n([C@H]2C[C@H](O)[C@@H](CO)O2)cc1I [IDOXURIDINE]
Not Active: IC50 (D(4) dopamine receptor) | IC50 [1] | Ki [1] | IC50 (Cytochrome P450 2C19) | Ki (Cytochrome P450 2C19) | IC50 [2] | Ki [2] | IC50 [3] | IC50 (Estrogen receptor beta) | IC50 [4] | IC50 [5] | Ki [5] | IC50 [6]

CC1Cc2ccccc2N1NC(=O)c1ccc(Cl)c(S(N)(=O)=O)c1 (stereo not given) [INDAPAMIDE]
Not Active: IC50 (D(4) dopamine receptor) | IC50 [1] | Ki [1] | IC50 (Cytochrome P450 2C19) | Ki (Cytochrome P450 2C19) | IC50 [2] | Ki [2] | IC50 [3] | IC50 (Estrogen receptor beta) | IC50 [4] | IC50 [5] | Ki [5] | IC50 [6]
